Experimental data from patent US20110217300A1, “Quinazolinone Compounds and Methods of Use Thereof” (priority 2007, published 2011).

Tests used:
Assay in all cases: MTS cell viability assay
Format in all cases: cell-based
[1] = system: 786-O; conditions: Homo sapiens, 786-0, kidney
Procedure: (§1) Cell viability was determined by measuring the activity of dehydrogenase enzymes in metabolically active cells using a tetrazolium compound, MTS. The assay was performed as described in Promega Technical Bulletin No. 169 (CellTiter 96 Aqueous Non-Radioactive Cell Proliferation Assay). Two human cancer cell lines were assayed (see, Table 1). Cells were maintained at 37° C. and 5% CO2 in DMEM media (4.5 g/L glucose) supplemented with 10% heat-inactivated FBS, 10 mM L-glutamine, and 10 mM Hepes pH 7.5. Briefly, cells were seeded in 96-well plates as set forth in Table 1 and incubated for 16-24 hours. Candidate compounds were serially diluted in DMSO, further diluted in cell culture media, and then added to cells (final DMSO concentration of 0.33%). Cells were incubated in the presence of candidate compound for 72 hours. MTS stock solution (MTS 2 gm/L, PMS […] in PBS) was added to the cells (final concentration MTS […] and PMS 7.67 mg/L) and incubated for 4 hours. SDS was added to a final concentration of 1.4% and absorbance at 490 nm was measured within two hours using a plate reader. […] GI50 values were given in Table 2 for the compounds listed. The Compound Numbers in Table 2 correspond to the numbers listed parenthetically in the Example titles. Where multiple measurements were made by different technicians, both values are given.
(§2) Cell viability was determined for N-(3-amino-propyl)-3-chloro-N—[(R)-1-(7-chloro-4-oxo-3-phenylamino-3,4-dihydro-quinazolin-2-yl)-but-3-ynyl]-2-fluoro-benzamide (compound I of Table 2). The cell viability assay of Example 105 was used. GI50 was determined using a variety of cell lines. Cells were plated at 100-5000 cells per well. At least 2 replicates were performed. Where multiple measurements were made by different technicians, both values are given.

[2] = system: A375; conditions: skin
Procedure: as §1, §2

[3] = system: AN3CA; conditions: Homo sapiens, AN3-CA, endometrial
Procedure: as §1, §2

[4] = system: CAKI-1; conditions: Homo sapiens, kidney
Procedure: as §1, §2

[5] = system: CAKI-2; conditions: Homo sapiens, kidney
Procedure: as §1, §2

[6] = system: CFPPAC-1; conditions: Pancreasductal adenocarcinoma, cystic fibrosis
Procedure: as §1, §2

[7] = system: COLO-205; conditions: Homo sapiens, colon
Procedure: as §1, §2

[8] = system: HEP-3B; conditions: Homo sapiens, Hep3B, liver
Procedure: as §1, §2

[9] = system: HEP-G2; conditions: Homo sapiens, HepG2, Hepatocellular carcinoma
Procedure: as §1, §2

[10] = system: K562; conditions: CML
Procedure: as §1, §2

[11] = system: KG-1a; conditions: Homo sapiens, AML
Procedure: as §1, §2

[12] = system: KG-1; conditions: Homo sapiens, AML
Procedure: as §1, §2

[13] = system: Kato III; conditions: Homo sapiens, Gastric Carcinoma
Procedure: as §1, §2

[14] = system: LS174T; conditions: Homo sapiens, Colorectal Carcinoma
Procedure: as §1, §2

[15] = system: LS411N; conditions: Homo sapiens, LS-411N, colon
Procedure: as §1, §2

[16] = system: NCI-H441; conditions: Lung Papillary Adenocarcinoma
Procedure: as §1, §2

[17] = system: NCI-H520; conditions: Homo sapiens, Squamous cell lung carcinoma
Procedure: as §1, §2

[18] = system: PANC-1; conditions: Homo sapiens, Pancreas epithelioid carcinoma
Procedure: as §1, §2

[19] = system: RKO; conditions: Homo sapiens, Colon Carcinoma
Procedure: as §1, §2

[20] = system: SK-LMS-1; conditions: Leiomyosarcoma
Procedure: as §1, §2

[21] = system: SNU475; conditions: Homo sapiens, SNU-475, liver
Procedure: as §1, §2

[22] = system: SW480; conditions: colon
Procedure: as §1, §2

[23] = system: SW620; conditions: Homo sapiens, SW-620, Colorectal adenocarcinoma
Procedure: as §1, §2

[24] = system: SW780; conditions: Homo sapiens, bladder
Procedure: as §1, §2

[25] = system: WM-266.4; conditions: Homo sapiens, WM 266-4, Melanoma
Procedure: as §1, §2

C#CC[C@H](c1nc2cc(Cl)ccc2c(=O)n1Nc1ccccc1)N(CCCN)C(=O)c1cccc(Cl)c1F [Compound 1, N-(3-Amino-propyl)-3-chloro-N—[(R)-1-(7-chloro-4-oxo-3-phenylamino-3,4-dihydro-quinazolin-2-yl)-but-3-ynyl]-2-fluoro-benzamide]
GI50 [1]: 1.75 µM
GI50 ([2]; A375, listed as I): 0.752 µM
GI50 ([2]; Homo sapiens, A-375, A375): 0.405 µM
GI50 [3]: 0.201 µM
GI50 [4]: 2.17 µM
GI50 [5]: 4.24 µM
GI50 [6]: 2.08 µM
GI50 [7]: 0.106 µM
GI50 [8]: 0.773 µM
GI50 [9]: 3.84 µM
GI50 ([10]; Homo sapiens, K562, K562): 0.133 µM
GI50 ([10]; K562, listed as I): 0.184 µM
GI50 [11]: 3.2 µM
GI50 [12]: 1.73 µM
GI50 [13]: 0.202 µM
GI50 [14]: 0.796 µM
GI50 [15]: 0.237 µM
GI50 ([16]; Homo sapiens, NCI-H441, NCI-H441): 3.33 µM
GI50 ([16]; NCI-H441, listed as I): 2.25 µM
GI50 [17]: 0.139 µM
GI50 [18]: 1.17 µM
GI50 [19]: 0.11 µM
GI50 [20]: 2.21 µM
GI50 [21]: 2.35 µM
GI50 ([22]; Homo sapiens, SW480, SW480): 1.27 µM
GI50 ([22]; SW480, listed as I): 1.22 µM
GI50 [23]: 0.317 µM
GI50 [24]: 0.22 µM
GI50 [25]: 2.3 µM
